The record followed here is patent US8178506B2, “Oligomeric compounds and compositions for use in modulation of small non-coding RNAs” (Regulus Therapeutics Inc., priority 2003, dated 2012).

In the oligonucleotide strings, read from the 5' end, every base follows the letter of its sugar. An asterisk marks phosphorothioate; unmarked linkages are phosphodiester. Other units and linkages are bracketed, terminal groups are in braces. A string of capitals states the bases alone. e = 2'-O-(2-methoxyethyl) (MOE); [5mC] = 5-methylcytosine

One data set relates to mir-15a miRNA. The data set can be described thus: pGL3-mir-15a sensor luciferase assay in HeLa cells. It is filed as cell-based, human. Conditions: pGL3-mir-15a sensor-expressing HeLa cells. The source says: In order to assess the ability of miRNAs to bind predicted miRNA binding sites and regulate the expression of the luciferase reporter, in some embodiments, expression systems based on the pGL3-Control (Promega Corp., Madison Wis.) reporter vector and comprising either a mir-15a, mir-21, or a mir-23b miRNA binding site were developed and used in transient transfections of HeLa cells to determine whether the endogenous mir-15a, mir-21, or mir-23b miRNAs, respectively, could repress luciferase reporter gene expression.
The pGL3-mir-15a sensor plasmid was created by cloning the sequence ([…]; SEQ ID NO: 369), complementary to the mir-15a miRNA, into the Xba site of the pGL3-Control plasmid, placing the potential miRNA-binding site in the 3′UTR of the luciferase reporter. This reporter plasmid was used to transfect HeLa cells and it was observed that the endogenous mir-15a miRNA was able to inhibit luciferase expression from the pGL3-mir-15a sensor plasmid. Thus, to further evaluate the ability of the mir-15a miRNA to bind this target site encoded by the pGL3-mir-15a sensor plasmid, and to assess the ability of oligomeric compounds to interfere with mir-15a-mediated silencing, pGL3-mir-15a sensor-expressing HeLa cells were treated with varying concentrations (3-, 10- or 30 nM) of the following oligomeric compounds: ISIS Number 327951 (SEQ ID NO: 369) is a uniform 2′-MOE compound targeting the mature mir-15a-1 miRNA. ISIS Numbers 356213 (SEQ ID NO: 878), 356215 (SEQ ID NO: 879), 356216 (SEQ ID NO: 880), 356218 (SEQ ID NO: 881), 356221 (SEQ ID NO: 882), 356227 (SEQ ID NO: 883) and 356229 (SEQ ID NO: 884) are phosphorothioate, uniform 2′-MOE oligomeric compounds designed and synthesized to target the entire length of the mir-15a pri-miRNA molecule (described in detail in Example 28, below). […] The data presented in Table 42 are the average of three trials and are presented as percent untreated control (luciferase plasmid only, not treated with oligomeric compound) luciferase expression, normalized to pRL-CMV levels.

The test system of another data set is ob/ob mice. The data set is described as follows: ob/ob mice: plasma parameters, food consumption, marker gene mRNA. Format: in vivo, mouse. Particulars: ob/ob mice; for mRNA expression levels of the Glut4, aP2 and HSL marker genes: 25 mg/kg two times per week. In short, it runs like this:
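Male C57Bl/6J ob/ob mice received oligomeric compound or control at 25 mg/kg s.c. twice weekly, for 4 weeks on a 10-15% fat diet or for 6 weeks on high-fat diet. Plasma glucose and insulin were measured at 0, 2 and 4 weeks; i.p. glucose/insulin tolerance tests were run; serum lipids, liver triglycerides and histology were assessed, with liver, BAT and WAT mRNA quantified by real-time PCR.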

The mark [1] stands for this setting: 25 mg/kg s.c. two times per week, 6 weeks.

“342673 (antisense eA*eG*eA*e[5mC]*eT*eA*eG*e[5mC]*eG*eG*eT*eA*eT*e[5mC]*eT*eT*eT*eA*eT*e[5mC]*e[5mC]*e[5mC]) [compound 342673]”: the results for the Relative luciferase activity in the data set with mir-15a miRNA (3 nM), in the data set with mir-15a miRNA (10 nM) and in the data set on mir-15a miRNA (30 nM) were 104.5, 82.6 and 85.7, respectively.
In the case of “TGAGCTACAGTGCTTCATCTCA [ISIS 327901] (chemistry not given here) [uniform 2′-MOE PS; targets mir-143]”, the “mRNA expression levels of the Glut4, aP2 and HSL marker genes” value in the data set with ob/ob mice is “slightly reduced”.
In the case of “TGAGCTACAGTGCTTCATCTCA [ISIS 340927] (chemistry not given here) [5-10-7 2′-MOE gapmer PS; targets mature mir-143]”, in the data set on ob/ob mice (setting [1]), the plasma cholesterol levels result is recorded as “slightly decrease over time”, the “plasma glucose levels (fed)” value is on record as “generally slightly lower” and the plasma triglyceride levels result is on record as “generally slightly lower”. Also, the “mRNA expression levels of the Glut4, aP2 and HSL marker genes” value in the data set with ob/ob mice is listed as “slightly reduced”.
As for “ACTTTCGGTTATCTAGCTTTA [ISIS 327892] (chemistry not given here) [uniform 2′-MOE PS; targets mir-131-2/mir-9]”, the “plasma glucose levels (fed)” value in the data set with ob/ob mice (setting [1]) was “reduced beginning at approximately four weeks after the start of treatment”. The “plasma glucose levels, fasted state” value with ob/ob mice (day 19) was “significant reductions in plasma glucose levels”.
“327951 (antisense e[5mC]*eA*e[5mC]*eA*eA*eA*e[5mC]*e[5mC]*eA*eT*eT*eA*eT*eG*eT*eG*e[5mC]*eT*eG*e[5mC]*eT*eA) [compound 327951]”: the Relative luciferase activity came out at 151.0 in the data set with mir-15a miRNA (3 nM), 207.6 with mir-15a miRNA (10 nM) and 137.1 in the data set with mir-15a miRNA (30 nM).
For “327901 (antisense eT*eG*eA*eG*e[5mC]*eT*eA*e[5mC]*eA*eG*eT*eG*e[5mC]*eT*eT*e[5mC]*eA*eT*e[5mC]*eT*e[5mC]*eA) [compound 327901]” the same measures were 83.6, 96.6 and 88.2.
